Source: patent publication US10933051B2, “Carbapenem compounds and compositions for the treatment of bacterial infections” (FOB Synthesis, Inc., priority 2017, dated 2021)

How the values were obtained:
Type in all cases: cell-based
Parameters in all cases: unit not given here
A. baumannii 4010 = experiment: MIC by CLSI agar/broth dilution, Test Example 1; conditions: Table 2; strain produces OXA-51
Description: (§1) The MIC (minimum inhibitory concentration) was determined by the CLSI (Clinical and Laboratory Standards Institute) methods. The agar dilution method for determining antimicrobial susceptibility was carried out using Mueller Hinton-II agar and the amount of inoculation was 10^4 CFU/spot. Broth dilution tests were performed using Mueller Hinton-II broth. All assays were run with the indicated control strains, available from the ATCC (American Type Culture Collection, Rockville, Md.).

A. baumannii KABA 01-33 = experiment: MIC by CLSI agar/broth dilution, Test Example 1; conditions: Table 2; strain produces OXA-2, VIM-2
Description: as §1

E. coli ATCC10536 = experiment: MIC by CLSI agar/broth dilution, Test Example 1; conditions: Table 2
Description: as §1

K. pneumoniae ATCC10031 = experiment: MIC by CLSI agar/broth dilution, Test Example 1; conditions: Table 2
Description: as §1

P. aeruginosa ATCC27853 = experiment: MIC by CLSI agar/broth dilution, Test Example 1; conditions: Table 2
Description: as §1

A. baumannii FSAb-029 = experiment: Antimicrobial Susceptibility Test (CLSI), Test Example 3; conditions: Table 6; strain produces OXA-2, IMP-1
Description: (§2) Antimicrobial Susceptibility Test was performed by the CLSI (Clinical and Laboratory Standards Institute) methods. The agar dilution method for determining antimicrobial susceptibility was carried out using Mueller Hinton-II agar and the amount of inoculation was 10^4CFU/spot. Broth dilution tests were performed using the Mueller Hinton-II broth. All assays were run with the indicated control strains, available from the ATCC (American Type Culture Collection, Rockville, Md.).

A. baumannii FSAb-039 = experiment: as above; conditions: Table 6; strain produces OXA-51
Description: as §2

A. baumannii FSAb-056 = experiment: as above; conditions: Table 6; strain produces OXA-23, 51
Description: as §2

A. baumannii FSAb-141 = experiment: as above; conditions: Table 6; strain produces PER-1, OXA-23, 51, 66
Description: as §2

E. coli FSEco-054 = experiment: as above; conditions: Table 6; strain produces ESBL
Description: as §2

K. pneumoniae BAA-1904 = experiment: as above; conditions: Table 6; strain produces KPC-3
Description: as §2

P. aeruginosa FSPa-102 = experiment: as above; conditions: Table 6; strain produces IMP-1
Description: as §2

P. aeruginosa FSPa-141 = experiment: as above; conditions: Table 6; strain produces VIM-2
Description: as §2

| MIC (minimum inhibitory concentration), A. baumannii 4010 (A. baumannii 4010) | MIC (minimum inhibitory concentration), A. baumannii KABA 01-33 (A. baumannii KABA 01-33) | MIC (minimum inhibitory concentration), E. coil ATCC10536 (E. coli ATCC10536) | MIC (minimum inhibitory concentration), K. pneumoniae ATCC10031 (K. pneumoniae ATCC10031) | MIC (minimum inhibitory concentration), P. aeruginosa ATCC27853 (P. aeruginosa ATCC27853) | SMILES | antimicrobial susceptibility, Ab FSAb-029 (A. baumannii FSAb-029) | antimicrobial susceptibility, Ab FSAb-039 (A. baumannii FSAb-039) | antimicrobial susceptibility, Ab FSAb-056 (A. baumannii FSAb-056) | antimicrobial susceptibility, Ab FSAb-141 (A. baumannii FSAb-141) | antimicrobial susceptibility, Ec FSEco-054 (E. coli FSEco-054) | antimicrobial susceptibility, Kp BAA-1904 (K. pneumoniae BAA-1904) | antimicrobial susceptibility, Pa FSPa-102 (P. aeruginosa FSPa-102) | antimicrobial susceptibility, Pa FSPa-141 (P. aeruginosa FSPa-141) |
| --- | --- | --- | --- | --- | --- | --- | --- | --- | --- | --- | --- | --- | --- |
| 8 | 4 | 1 | 0.5 | >32 | C[C@@H](O)[C@H]1C(=O)N2C(C(=O)O)=C(CN(C)CCNC(=O)c3ccc(O)c(O)c3)[C@H](C)[C@H]12 [Compound 8] | – | – | – | – | – | – | – | – |
| >32 | >32 | 32 | 1 | >32 | COc1ccc(C(=O)NCCN(C)CC2=C(C(=O)O)N3C(=O)[C@H]([C@@H](C)O)[C@H]3[C@H]2C)c(Cl)c1OC [Compound 15] | – | – | – | – | – | – | – | – |
| 16 | 4 | 0.5 | 0.25 | 16 | C[C@@H](O)[C@H]1C(=O)N2C(C(=O)O)=C(CN(C)CC(=O)NCCNC(=O)c3ccc(O)c(O)c3)[C@H](C)[C@H]12 [Compound 20] | – | – | – | – | – | – | – | – |
| >32 | 32 | 2 | 0.5 | >32 | C[C@@H](O)[C@H]1C(=O)N2C(C(=O)O)=C(CN(C)CC(=O)NCCc3ccc(O)c(O)c3)[C@H](C)[C@H]12 [Compound 22] | – | – | – | – | – | – | – | – |
| >32 | 16 | 8 | 2 | >32 | C[C@@H](O)[C@H]1C(=O)N2C(C(=O)O)=C(CN(C)CCNC(=O)CCc3ccc(O)c(O)c3Cl)[C@H](C)[C@H]12 [Compound 23] | – | – | – | – | – | – | – | – |
| 16 | 8 | 0.5 | 0.25 | 32 | C[C@@H](O)[C@H]1C(=O)N2C(C(=O)O)=C(CN(C)CCNC(=O)c3cc(=O)c(O)cn3O)[C@H](C)[C@H]12 [Compound 25] | – | – | – | – | – | – | – | – |
| 8 | 16 | 0.063 | 0.063 | 16 | C[C@@H](O)[C@H]1C(=O)N2C(C(=O)O)=C(CN(C)CC(=O)NCc3cc(=O)c(O)co3)[C@H](C)[C@H]12 [Compound 27] | – | – | – | – | – | – | – | – |
| – | – | – | – | – | C[C@@H](O)[C@H]1C(=O)N2C(C(=O)O)=C(CN(CCCNC(=O)c3ccc(O)c(O)c3)CCCNC(=O)c3ccc(O)c(O)c3)[C@H](C)[C@H]12 [Compound 110] | 2 | 8 | 8 | 4 | 4 | >32 | 8 | 16 |
| – | – | – | – | – | C[C@@H](O)[C@H]1C(=O)N2C(C(=O)O)=C(CN(CCCCNC(=O)c3ccc(O)c(O)c3)CCCNC(=O)c3ccc(O)c(O)c3)[C@H](C)[C@H]12 [Compound 111] | 2 | 4 | 8 | 2 | 4 | >32 | 4 | 16 |
| – | – | – | – | – | C[C@@H](O)[C@H]1C(=O)N2C(C(=O)O)=C(CN(CCCNC(=O)c3cccc(O)c3O)CCNC(=O)c3cccc(O)c3O)[C@H](C)[C@H]12 [Compound 112] | 4 | 8 | 32 | 4 | 8 | >32 | 16 | >32 |
| – | – | – | – | – | C[C@@H](O)[C@H]1C(=O)N2C(C(=O)O)=C(CN(CCCCNC(=O)c3cccc(O)c3O)CCCNC(=O)c3cccc(O)c3O)[C@H](C)[C@H]12 [Compound 113] | >32 | >32 | >32 | >32 | >32 | >32 | >32 | >32 |
| – | – | – | – | – | C[C@@H](O)[C@H]1C(=O)N2C(C(=O)[O-])=C(C[N+](C)(CCCNC(=O)c3ccc(O)c(O)c3F)CCCNC(=O)c3ccc(O)c(O)c3F)[C@H](C)[C@H]12 [Compound 114] | 1 | 32 | 8 | 2 | 2 | >32 | 4 | 4 |
| – | – | – | – | – | C[C@@H](O)[C@H]1C(=O)N2C(C(=O)O)=C(CN(C)CC(=O)N(CCCNC(=O)c3ccc(O)c(O)c3F)CCCNC(=O)c3ccc(O)c(O)c3F)[C@H](C)[C@H]12 [Compound 115] | 2 | 4 | 8 | 2 | 2 | >32 | 2 | 4 |
| – | – | – | – | – | C[C@@H](O)[C@H]1C(=O)N2C(C(=O)O)=C(CN(C)CC(=O)N(CCCNC(=O)c3ccc(O)c(O)c3F)CCCNC(=O)c3ccc(O)c(O)c3F)[C@H](C)[C@H]12 [Compound 117] | 2 | 4 | 4 | 2 | 1 | >32 | 2 | 8 |
| – | – | – | – | – | C[C@@H](O)[C@H]1C(=O)N2C(C(=O)[O-])=C(CN(C)CC[N+](C)(CCCNC(=O)c3ccc(O)c(O)c3F)CCCNC(=O)c3ccc(O)c(O)c3F)[C@H](C)[C@H]12 [Compound 118] | 2 | 8 | 8 | 4 | 2 | >32 | 4 | 8 |
| – | – | – | – | – | COc1ccc(C(=O)NCCCN(CCCNC(=O)c2ccc(O)c(O)c2F)CC2=C(C(=O)O)N3C(=O)[C@H]([C@@H](C)O)[C@H]3[C@H]2C)c(F)c1OC [Compound 119] | 4 | 8 | 8 | 8 | 16 | >32 | >32 | >32 |
| – | – | – | – | – | COc1ccc(C(=O)NCCCN(CCCNC(=O)c2ccc(OC)c(OC)c2F)CC2=C(C(=O)O)N3C(=O)[C@H]([C@@H](C)O)[C@H]3[C@H]2C)c(F)c1OC [Compound 120] | >32 | >32 | >32 | >32 | >32 | >32 | >32 | >32 |
